This note sets out measurements from patent publication US20190216815A1, “COMBINATION THERAPY COMPRISING A POLYUNSATURATED KETONE AND A FOLIC ACID PARTNER” (Avexxin AS, priority 2016, published 2019).

Common to all, as to type: cell-based
One experiment relates to HaCaT cells. Nature of the experiment: Resazurin assay, HaCaT keratinocyte proliferation and viability. The conditions noted are these: Homo sapiens, 10 μM MTX alone, 24 hours of treatment, read-out: reduction of proliferation and viability of HaCaT cells. The method, then:
The spontaneously immortalized, nontumorigenic skin keratinocyte cell line HaCaT was maintained in DMEM supplemented with 5% (v/v) FBS, 0.3 mg/ml glutamine and 0.1 mg/ml gentamicin at 37° C. with 5% CO2 in a humidified atmosphere. Subculture using trypsin-EDTA was performed every 3-4 days with split ratio of 1:3-1:4 to ensure actively proliferating cells. Cells were seeded in 96 well plates in fully supplemented medium at a density of 2500 cells per well. Following 72 hours of cultivation, the cells were starved of serum in 0.25% FBS/DMEM overnight to halt proliferation, synchronize and to increase cell sensitivity to treatment. On day 4, the cells were treated with cPLA2α inhibitor Compound A1 and folic acid analogue methotrexate hydrate (MTX) (Sigma Aldrich #A6770) and left to incubate for […] in incubator at 37° C. with 5% CO2 in a humidified atmosphere before fluorescence was read at 544 nm excitation and 590 nm emission wavelength. The cells were observed under the microscope to evaluate possible morphology changes and signs of stress before addition of resazurin. The experiments were performed in series of 8 wells per treatment and repeated 2-3 times.
For orientation: Alamar Blue is a resazurin reagent that responds to reducing activity.

Experiment [1] concerns LPS-induced production of TNF in PBMC. Nature of the experiment: LPS-induced TNF production in PBMC (ELISA). As to conditions: 1 μM MTX alone, 72 hours, 10 ng/mL LPS. The method, then: (§1) Blood was recruited from healthy donors at St. Olays Hospital HF, the Bloodbank. Peripheral blood mononuclear cells (PBMC) were isolated using SepMate™ separation tubes with LymphoPrep density gradient medium according to the STEMCELL Technology recommendations. For experiments, 1×10^6 cells/well/1 mL RPMI medium supplemented with 5% FBS, 0.3 mg/ml glutamine and 0.1 mg/ml gentamicin with or without inhibitors Compound A1, methotrexate hydrate (MTX) (Sigma-Aldrich, #A6770) or a combination of the two inhibitors, prior to the addition of lipopolysaccharides as a potent inducer of inflammation (LPS from E. coli 026:B6 γ-irradiated, Sigma-Aldrich, #L2654). Following treatment (72 hrs., 37° C., 5% CO2), the cell suspensions were centrifuged to isolate the supernatant from the cell fraction. Samples were stored at −80° C. until analysis.
(§2) Cell supernatant samples were analyzed by enzyme-linked immunosorbent assay (EIA) for PGE2 (Cayman #514010), TNF and IL1-β (RnD Systems, DuoSet #DY210 and #DY201) according to the manufacturers protocols. Cell supernatants were assayed at dilutions 1:1 for TNF; 1:10 for IL1-β and 1:100 for PGE2, except supernatants from untreated PBMC (negative control) that were assayed undiluted in all assays. Supernatants were hybridized over-night incubation, enzymatic conversion of substrate were read at OD420 nm. […]

Experiment [2] relates to LPS-induced IL-1b levels in PBMC. Put plainly: LPS-induced IL-1β production in PBMC (ELISA). The conditions noted are these: 1 μM MTX alone, 72 hours, 10 ng/mL LPS. The method, then:
as §1, §2
(An ELISA detects its analyte on a solid surface through an enzyme-linked reagent.)

As for `CN(Cc1cnc2nc(N)nc(N)c2n1)c1ccc(C(=O)N[C@@H](CCC(=O)O)C(=O)O)cc1` [MTX, methotrexate hydrate], the cytotoxicity at 10 µM in the experiment on HaCaT cells was approximately 15%. The “reduction of LPS-induced TNF levels” value in experiment [1] was approximately 20%. The “reduction of LPS-induced IL-1b levels” value in experiment [2] is approximately 20%.
